“And” between values parts separate entries of the source, which are not always exact repeats. Equal values may be shown once.
Target: T1, human SHP-1 (Homo sapiens, UniProt P29350)
T1 construct: 6xHis (N); made in house; host or cells: Escherichia coli BL21-CodonPlus (DE3)-RIPL
Assay: SPR-based assay for tethered SHP-1 reactions on immobilised phosphopeptides, extended MPDPDE model fit
Format: binding

[1] = SPR, 37°C, MPDPDE fit, mean ± SE of N experiments

T1 sequence (P29350 whole entry): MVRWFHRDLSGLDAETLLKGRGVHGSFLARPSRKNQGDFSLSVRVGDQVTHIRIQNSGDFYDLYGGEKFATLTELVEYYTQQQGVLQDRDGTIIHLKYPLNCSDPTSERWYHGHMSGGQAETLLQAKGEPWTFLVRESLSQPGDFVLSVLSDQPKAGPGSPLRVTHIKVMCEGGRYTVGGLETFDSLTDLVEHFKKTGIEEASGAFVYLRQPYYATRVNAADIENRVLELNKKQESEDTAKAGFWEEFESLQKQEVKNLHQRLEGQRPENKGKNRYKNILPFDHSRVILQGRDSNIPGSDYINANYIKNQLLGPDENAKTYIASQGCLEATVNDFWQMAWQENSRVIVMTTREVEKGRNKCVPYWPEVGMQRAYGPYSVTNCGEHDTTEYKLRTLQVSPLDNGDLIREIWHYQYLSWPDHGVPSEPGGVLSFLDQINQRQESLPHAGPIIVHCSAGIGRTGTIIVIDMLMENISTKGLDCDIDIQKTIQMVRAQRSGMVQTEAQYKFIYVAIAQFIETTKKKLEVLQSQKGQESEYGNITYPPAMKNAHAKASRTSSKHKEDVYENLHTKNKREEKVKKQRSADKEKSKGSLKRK

## biotin-QLRRRGKTNHYQTTVEKK SLTIYAQVQKPGPLQKKLD SFPA QDPCTTIYVAATEPVPESVQET NSITVY^∗ASVTLPES [SLAM, N-terminally biotinylated singly phosphorylated peptide of the cytoplasmic tail of SLAM, 77 aa]
37°C, ((L^2 − LSHP-1^2)/2)^1/2 with LSHP-1 = 13.0 nm
  molecular reach contributed by the peptide tail (LPD-1 or LSLAM): 20.1 nm and 20 nm
SPR Biacore T200, 37°C, 10 μL/min, SHP-1 injected 45 s over biotinylated phosphopeptide on streptavidin CM5 chip, HEPES pH 7.4, MPDPDE fit, mean ± SE of N experiments
  kon: 20000 ± 10000 M⁻¹ s⁻¹
SPR, 37°C
  allosteric activation of SHP-1, ratio kcat(tethered)/kcat(solution): 6.2 fold
SPR, 37°C, KD = koff/kon, mean ± SE of N experiments
  Kd: 130 ± 40 µM
SPR, 37°C, L = (σ*)^−1/3 from averaged σ*, ± SE
  L, molecular reach of the reaction: 31.2 ± 1.2 nm
[1]
  kcat(solution): 5800 ± 1000 M⁻¹ s⁻¹
  kcat(tethered): 36000 ± 3000 M⁻¹ s⁻¹
  koff: 1.7 ± 0.2 s⁻¹
  σ* (local concentration): 55 ± 6 µM

Source: article PMC8204385 (Biophysical Journal, 2021)
